Assay: xn = mol fraction of the nth substance listed

CCCCOC(C)=O + CCCO
viscosity [mPa·s], 101 kPa
Conditions | 298.15 K | 303.15 K | 308.15 K | 313.15 K
x1 = 0.0995 | 1.689 | 1.479 | 1.311 | 1.19
x1 = 0.1003 | – | 1.296 | – | –
x1 = 0.198 | – | 1.062 | – | –
x1 = 0.1987 | 1.483 | 1.293 | 1.148 | 1.048
x1 = 0.2976 | 1.308 | 1.148 | 1.025 | 0.942
x1 = 0.3002 | – | 0.912 | – | –
x1 = 0.4004 | – | 0.821 | – | –
x1 = 0.4009 | 1.151 | 1.011 | 0.915 | 0.848
x1 = 0.4989 | 1.023 | 0.903 | 0.822 | 0.77
x1 = 0.5001 | – | 0.755 | – | –
x1 = 0.5969 | 0.921 | 0.836 | 0.76 | 0.713
x1 = 0.6002 | – | 0.705 | – | –
x1 = 0.6993 | 0.833 | 0.766 | 0.7 | 0.67
x1 = 0.7001 | – | 0.674 | – | –
x1 = 0.7999 | – | 0.654 | – | –
x1 = 0.8008 | 0.767 | 0.717 | 0.666 | 0.631
x1 = 0.8932 | 0.717 | 0.68 | 0.636 | 0.61
x1 = 0.9002 | – | 0.641 | – | –

CCCN + CCN(CC)CC
303.15 K, 101.33 kPa
Conditions | viscosity [mPa·s]
x2 = 0.1027 | 0.3371
x2 = 0.2061 | 0.3317
x2 = 0.3991 | 0.3268
x2 = 0.495 | 0.3278
x2 = 0.6009 | 0.331
x2 = 0.7911 | 0.3408
x2 = 0.8925 | 0.3499

Oc1ccccc1Cl + CCN(CC)CC
298 K, 101.33 kPa
Conditions | viscosity [mPa·s]
x1 = 0.074 | 0.447
x1 = 0.305 | 1.41
x1 = 0.408 | 3.58
x1 = 0.473 | 7.81
x1 = 0.552 | 26.2
x1 = 0.616 | 109
x1 = 0.65 | 255
x1 = 0.703 | 529
x1 = 0.72 | 594
x1 = 0.751 | 451
x1 = 0.769 | 343
x1 = 0.797 | 213
x1 = 0.843 | 68.9
x1 = 0.87 | 34.3
x1 = 0.901 | 18.3
x1 = 0.956 | 5.91

Oc1ccccc1Cl + CCN(CC)c1ccccc1
viscosity [mPa·s], 101 kPa
Conditions | x1 = 0.1 | x1 = 0.2015 | x1 = 0.3033 | x1 = 0.4011 | x1 = 0.497 | x1 = 0.6026 | x1 = 0.7 | x1 = 0.7988 | x1 = 0.9003
298 K | 2.116 | 2.366 | 2.722 | 3.122 | 3.629 | 4.195 | 4.548 | 4.623 | 4.12
303 K | 1.858 | 2.053 | 2.31 | 2.589 | 2.933 | 3.337 | 3.533 | 3.605 | 3.32
308 K | 1.668 | 1.818 | 2.013 | 2.192 | 2.432 | 2.741 | 2.89 | 2.938 | 2.769
313 K | 1.507 | 1.626 | 1.775 | 1.94 | 2.12 | 2.318 | 2.42 | 2.463 | 2.361
318 K | 1.37 | 1.47 | 1.641 | 1.701 | 1.841 | 1.998 | 2.086 | 2.129 | 2.135

Clc1ccccc1Cl + CCNc1ccccc1
viscosity [mPa·s], 101 kPa
Conditions | 303.15 K | 308.15 K
x2 = 0.0789 | 1.286 | 1.19
x2 = 0.1156 | 1.309 | 1.21
x2 = 0.1659 | 1.338 | 1.234
x2 = 0.2569 | 1.391 | 1.277
x2 = 0.3287 | 1.43 | 1.309
x2 = 0.3968 | 1.467 | 1.339
x2 = 0.4925 | 1.516 | 1.379
x2 = 0.5421 | 1.541 | 1.399
x2 = 0.6325 | 1.584 | 1.434
x2 = 0.6897 | 1.611 | 1.454
x2 = 0.7659 | 1.646 | 1.48
x2 = 0.8425 | 1.678 | 1.508
x2 = 0.9121 | 1.709 | 1.531

Oc1ccccc1Cl + CCNc1ccccc1
viscosity [mPa·s], 101 kPa
Conditions | x1 = 0.1027 | x1 = 0.2022 | x1 = 0.3028 | x1 = 0.4011 | x1 = 0.5014 | x1 = 0.6004 | x1 = 0.7024 | x1 = 0.7991 | x1 = 0.8994
298 K | 2.403 | 2.916 | 3.666 | 4.186 | 4.763 | 5.01 | 5.008 | 4.647 | 4.064
303 K | 2.117 | 2.487 | 3.051 | 3.372 | 3.807 | 4.028 | 3.972 | 3.751 | 3.335
308 K | 1.852 | 2.161 | 2.557 | 2.828 | 3.16 | 3.314 | 3.299 | 3.134 | 2.844
313 K | 1.673 | 1.885 | 2.206 | 2.407 | 2.662 | 2.771 | 2.782 | 2.67 | 2.452
318 K | 1.491 | 1.67 | 1.925 | 2.166 | 2.287 | 2.372 | 2.392 | 2.317 | 2.137

C=COC(C)=O + CCO
303.15 K, 101.33 kPa
Conditions | viscosity [mPa·s]
x1 = 0.0998 | 0.787
x1 = 0.2001 | 0.651
x1 = 0.2995 | 0.564
x1 = 0.4007 | 0.501
x1 = 0.5002 | 0.457
x1 = 0.599 | 0.425
x1 = 0.7013 | 0.402
x1 = 0.8005 | 0.386
x1 = 0.9002 | 0.378

CC(C)c1ccccc1 + CCO
viscosity [mPa·s], 101 kPa
Conditions | x1 = 0.0663 | x1 = 0.1236 | x1 = 0.2015 | x1 = 0.2971 | x1 = 0.4052 | x1 = 0.5656 | x1 = 0.7293
298.15 K | 1.036 | 0.982 | 0.926 | 0.878 | 0.836 | 0.796 | 0.764
308.15 K | 0.897 | 0.86 | 0.81 | 0.753 | 0.7 | 0.653 | 0.64

CCC(CC)CO + CCO
298.15 K, 101.33 kPa
Conditions | viscosity [mPa·s]
x2 = 0.1055 | 5.144
x2 = 0.2003 | 4.502
x2 = 0.3067 | 3.844
x2 = 0.4044 | 3.291
x2 = 0.503 | 2.777
x2 = 0.6076 | 2.35
x2 = 0.6966 | 1.972
x2 = 0.8051 | 1.617
x2 = 0.9036 | 1.345

CCCCOC(C)=O + CCO
viscosity [mPa·s], 101 kPa
Conditions | x1 = 0.0995 | x1 = 0.1987 | x1 = 0.2996 | x1 = 0.4023 | x1 = 0.4982 | x1 = 0.5987 | x1 = 0.693 | x1 = 0.7968 | x1 = 0.9004
298.15 K | 0.937 | 0.835 | 0.765 | 0.71 | 0.668 | 0.647 | 0.639 | 0.641 | 0.648
303.15 K | 0.871 | – | 0.712 | 0.663 | – | 0.612 | 0.61 | 0.616 | 0.621
308.15 K | 0.797 | 0.719 | 0.657 | 0.621 | 0.591 | 0.582 | 0.582 | 0.582 | 0.587
313.15 K | 0.734 | 0.671 | 0.621 | 0.591 | 0.563 | 0.558 | 0.555 | 0.562 | –

CCCN + CCO
Conditions | viscosity [mPa·s]
298.15 K, 100 kPa, x2 = 0.0515 | 0.3851
298.15 K, 100 kPa, x2 = 0.098 | 0.4053
298.15 K, 100 kPa, x2 = 0.2026 | 0.4571
298.15 K, 100 kPa, x2 = 0.2763 | 0.4993
298.15 K, 100 kPa, x2 = 0.3874 | 0.5717
298.15 K, 100 kPa, x2 = 0.4986 | 0.6539
298.15 K, 100 kPa, x2 = 0.6013 | 0.7371
298.15 K, 100 kPa, x2 = 0.7485 | 0.865
298.15 K, 100 kPa, x2 = 0.7991 | 0.9101
298.15 K, 100 kPa, x2 = 0.8981 | 0.9984
298.15 K, 100 kPa, x2 = 0.961 | 1.052
303.15 K, 101.33 kPa, x1 = 0.1084 | 0.9336
303.15 K, 101.33 kPa, x1 = 0.2091 | 0.8629
303.15 K, 101.33 kPa, x1 = 0.3178 | 0.7773
303.15 K, 101.33 kPa, x1 = 0.4096 | 0.7051
303.15 K, 101.33 kPa, x1 = 0.5111 | 0.6253
303.15 K, 101.33 kPa, x1 = 0.6177 | 0.5566
303.15 K, 101.33 kPa, x1 = 0.7059 | 0.5029
303.15 K, 101.33 kPa, x1 = 0.8061 | 0.4453
303.15 K, 101.33 kPa, x1 = 0.901 | 0.3982
313.15 K, 101.33 kPa, x1 = 0.1084 | 0.7854
313.15 K, 101.33 kPa, x1 = 0.2091 | 0.7216
313.15 K, 101.33 kPa, x1 = 0.3178 | 0.6541
313.15 K, 101.33 kPa, x1 = 0.4096 | 0.5979
313.15 K, 101.33 kPa, x1 = 0.5111 | 0.5352
313.15 K, 101.33 kPa, x1 = 0.6177 | 0.475
313.15 K, 101.33 kPa, x1 = 0.7059 | 0.4325
313.15 K, 101.33 kPa, x1 = 0.8061 | 0.3864
313.15 K, 101.33 kPa, x1 = 0.901 | 0.3474

Oc1ccccc1Cl + CCO
Conditions | viscosity [mPa·s]
298.15 K, 101 kPa, x1 = 0.5 | 1.452

Oc1ccccc1Cl + CCOCCO
viscosity [mPa·s], 101 kPa
Conditions | x1 = 0.0961 | x1 = 0.193 | x1 = 0.2907 | x1 = 0.3894 | x1 = 0.4889 | x1 = 0.5893 | x1 = 0.6906 | x1 = 0.7928 | x1 = 0.8959
303.15 K | 2.185 | 2.825 | 3.45 | 3.996 | 4.376 | 4.53 | 4.41 | 4.05 | 3.486
308.15 K | 1.948 | 2.453 | 2.949 | 3.365 | 3.66 | 3.784 | 3.706 | 3.43 | 3.005
313.15 K | 1.725 | 2.133 | 2.524 | 2.868 | 3.106 | 3.215 | 3.17 | 2.974 | 2.664
318.15 K | 1.567 | 1.887 | 2.19 | 2.449 | 2.63 | 2.724 | 2.702 | 2.57 | 2.341

CC(C)c1ccccc1 + CCc1ccccc1
101.33 kPa, x1 = 0.4675
Conditions | viscosity [mPa·s]
293.15 K | 0.696
313.15 K | 0.545
